The test system of one experiment is MRSA. To be noted: systemically delivered, mouse models; cited from earlier work.
In experiment [1] the test system is MRSA strain NRS382 biofilms. Description: Dynamic biofilm model, Live/Dead viability. It is filed as cell-based, S. aureus. To be noted: Staphylococcus aureus, 2 h, read-out: viability in dynamic biofilms (percentage of live cells; controls 100%). The protocol:
Biofilms were pre-stained with the Live/Dead stain (see methods) and viewed with 20× magnification. FIG. 9b depicts bacterial viability. Analysis of bacterial viability in NRS382 dynamic biofilms is based on mean fluorescent intensities of the Live/Dead viability stain when exposed to 100 μg/ml of PGH K-L (1.4 μM), K-L-PTD1 (1.4 μM), or vancomycin (69 μM) at a flow rate of 0.5 ml/min for 2 h and compared to PBS. Error bars represent SEM (N=3) of three independent 100×100 pixel squares identically located in each biofilm z-stack. […]
In order to visualize the viability of S. aureus NRS382 biofilms, each chamber of the flow cell was fluorescently labeled by the Live/Dead BacLight™ staining kit (Invitrogen, Carlsbad, Calif.) for one hour. […] To quantify the viability of S. aureus NRS382 biofilms at various time points in the presence of different treatments, one image at the center of z-series (i.e. center of the biofilm) for each time point was selected to represent each treatment group. Three squares representing 100×100 pixels were drawn in each image and the mean intensity of live (green channel) and dead (red channel) cell populations were calculated by Zen 2010 digital imaging software (Carl Zeiss). […] The percentage of live cells remaining in biofilms after various treatments was statistically analyzed by an unpaired t-test.

By viability is commonly meant a read-out of living cells in per cent, often relative to untreated cells.

For the compound `Cc1onc(-c2ccccc2)c1C(=O)N[C@@H]1C(=O)N2[C@@H]1SC(C)(C)[C@@H]2C(=O)O` [oxacillin], the “protection from MRSA bacteremia / survival at 48 hours post infection” value in the experiment with MRSA is recorded as 20%.
Turning to `CN[C@H](CC(C)C)C(=O)N[C@H]1C(=O)N[C@@H](CC(N)=O)C(=O)N[C@H]2C(=O)N[C@H]3C(=O)N[C@H](C(=O)N[C@H](C(=O)O)c4cc(O)cc(O)c4-c4cc3ccc4O)[C@H](O)c3ccc(c(Cl)c3)Oc3cc2cc(c3O[C@@H]2O[C@H](CO)[C@@H](O)[C@H](O)[C@H]2O[C@H]2C[C@](C)(N)[C@H](O)[C@H](C)O2)Oc2ccc(cc2Cl)[C@H]1O` [vancomycin], the viability at 100 µg/mL in experiment [1] turned out to be 40%.

Source of the values: patent publication US20160097044A1, “Antimicrobial Enzyme Fusions Reduce Resistance and Kill Intracellular Staphylococcus aureus” (The United States of America, as Represented by the …, priority 2014, published 2016).
